Experiment [1] is described as follows: Binding interaction with fibrinogen assessed as spin lattice relaxation rate enumerated as normalized affinity index at given concentration and fixed temperature by NMR relaxation experiment.
A further experiment relates to Platelet. Nature of the experiment: Binding interaction with platelet assessed as spin lattice relaxation rate enumerated as normalized affinity index at given concentration and fixed temperature by NMR relaxation experiment. Type of experiment: cell-based.

2 molecules from ChEMBL document CHEMBL1152696, “Interaction study of bioactive molecules with fibrinogen and human platelets determined by 1H NMR relaxation experiments” (Bioorg Med Chem, 2009) can be followed below.

Take `CC(C)NCC(O)c1ccc(O)c(O)c1` (centres undefined): in experiment [1], the [A]T,L was 9730 /mol.dm'3. For the same molecule, the [A]T,L (10'-8 /no of units.cm'3) in the experiment with Platelet was 4.47.

As for `CNC[C@H](O)c1ccc(O)c(O)c1`, in experiment [1], the [A]T,L is 26900 /mol.dm'3. For the same molecule, the [A]T,L (10'-8 /no of units.cm'3) with Platelet came to 4.66.
